Test results reported in US20240217978A1 (CHONG KUN DANG PHARMACEUTICAL CORP., priority 2021, published 2024).

Target: human adenosine A2a receptor (Homo sapiens (Human), UniProt P29274)
Assay: A2a receptor binding affinity, [3H]-NECA radioligand binding test
Conditions: [3H]-NECA 37 nM; membrane from HEK-293 cells transfected with human adenosine A2a receptor
Outline: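 IC50 values (μM) come from displacement of [3H]-NECA, used at 37 nM final, on human A2a receptor membranes from transfected HEK-293 cells. Incubation lasted one hour at room temperature in Tris/MgCl2/EDTA buffer, pH 7.4; filter-bound radioactivity was counted by scintillation.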

Chain of human adenosine A2a receptor (P29274 whole entry): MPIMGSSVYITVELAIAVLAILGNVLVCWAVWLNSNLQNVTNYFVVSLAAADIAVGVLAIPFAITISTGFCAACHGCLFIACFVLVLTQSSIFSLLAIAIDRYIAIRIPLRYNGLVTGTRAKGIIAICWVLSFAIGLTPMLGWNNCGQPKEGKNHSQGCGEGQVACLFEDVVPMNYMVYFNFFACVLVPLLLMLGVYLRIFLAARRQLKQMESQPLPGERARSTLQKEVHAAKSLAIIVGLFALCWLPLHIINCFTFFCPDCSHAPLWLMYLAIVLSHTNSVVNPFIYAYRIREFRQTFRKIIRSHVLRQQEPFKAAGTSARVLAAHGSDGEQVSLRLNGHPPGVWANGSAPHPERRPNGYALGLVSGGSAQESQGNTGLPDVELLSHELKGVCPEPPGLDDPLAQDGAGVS

Compound | IC50
CC(C)(C)[C@H](Nc1nc(N)n2nc(-c3ccco3)nc2n1)C(=O)N1CCN(c2ccc(F)cc2F)CC1 [Example 165, (S)-2-((7-amino-2-(furan-2-yl)-[1,2,4]triazolo[1,5-a][1,3,5]triazin-5-yl)amino)-1-(4-(2,4-difluorophenyl)piperazin-1-yl)-3,3-dimethylbutan-1-one] | 0.6 nM
CC(C)(F)CN1CCN(C(=O)[C@@H]2CCN2c2nc(N)n3nc(-c4ccco4)nc3n2)CC1 [Example 108, (S)-(1-(7-amino-2-(furan-2-yl)-[1,2,4]triazolo[1,5-a][1,3,5]triazin-5-yl)azetidin-2-yl)(4-(2-fluoro-2-methylpropyl)piperazin-1-yl)methanone] | 9 nM
Nc1nc(N2CCC[C@H]2C(=O)N2CCN(c3ccc(F)cc3F)CC2)nc2nc(-c3nccs3)nn12 [Example 67, (S)-(1-(7-amino-2-(thiazol-2-yl)-[1,2,4]triazolo[1,5-a][1,3,5]triazin-5-yl)pyrrolidin-2-yl)(4-(2,4-difluorophenyl)piperazin-1-yl)methanone] | 3 nM
CCC[C@H](Nc1nc(N)n2nc(-c3ccco3)nc2n1)C(=O)N1CCN(c2ccc(F)cc2F)CC1 [Example 163, (S)-2-((7-amino-2-(furan-2-yl)-[1,2,4]triazolo[1,5-a][1,3,5]triazin-5-yl)amino)-1-(4-(2,4-difluorophenyl)piperazin-1-yl)pentan-1-one] | 0.5 nM
CCC(C)[C@H](Nc1nc(N)n2nc(-c3ccco3)nc2n1)C(=O)N1CCN(c2ccc(F)cc2F)CC1 (stereo partly drawn) [Example 166, (2S)-2-((7-amino-2-(furan-2-yl)-[1,2,4]triazolo[1,5-a][1,3,5]triazin-5-yl)amino)-1-(4-(2,4-difluorophenyl)piperazin-1-yl)-3-methylpentan-1-one] | 0.08 nM
Nc1nc(N2CCC[C@H]2C(=O)N2CCN(Cc3ccc(F)cc3F)CC2)nc2nc(-c3ccco3)nn12 [Example 16, (S)-(1-(7-amino-2-(furan-2-yl)-[1,2,4]triazolo[1,5-a][1,3,5]triazin-5-yl)pyrrolidin-2-yl)(4-(2,4-difluorobenzyl)piperazin-1-yl)methanone] | 1.95 nM
Nc1nc(N[C@H](C(=O)N2CCN(c3ccc(F)cc3F)CC2)C2CCCC2)nc2nc(-c3ccco3)nn12 [Example 170, (S)-2-((7-amino-2-(furan-2-yl)-[1,2,4]triazolo[1,5-a][1,3,5]triazin-5-yl)amino)-2-cyclopentyl-1-(4-(2,4-difluorophenyl)piperazin-1-yl)ethan-1-one] | 1 nM
CCCCN1CCN(C(=O)[C@H](CC(C)C)Nc2nc(N)n3nc(-c4ccco4)nc3n2)CC1 [Example 175, (S)-2-((7-amino-2-(furan-2-yl)-[1,2,4]triazolo[1,5-a][1,3,5]triazin-5-yl)amino)-1-(4-butylpiperazin-1-yl)-4-methylpentan-1-one] | 12 nM
COCCOCCN1CCN(C(=O)[C@@H]2CCCN2c2nc(N)n3nc(-c4ccco4)nc3n2)CC1 [Example 141, (S)-(1-(7-amino-2-(furan-2-yl)-[1,2,4]triazolo[1,5-a][1,3,5]triazin-5-yl)pyrrolidin-2-yl)(4-(2-(2-methoxyethoxy)ethyl)piperazin-1-yl)methanone] | 15 nM
Nc1nc(N2CCC[C@H]2C(=O)N2C3CCC2CN(C(=O)Nc2ccccc2)C3)nc2nc(-c3ccco3)nn12 [Example 180, 8-((7-amino-2-(furan-2-yl)-[1,2,4]triazolo[1,5-a][1,3,5]triazin-5-yl)-L-prolyl)-N-phenyl-3,8-diazabicyclo[3.2.1]octane-3-carboxamide] | 7 nM
Cc1ccc(-c2nc3nc(N4CCC[C@H]4C(=O)N4CCN(c5ccccc5)C(=O)C4)nc(N)n3n2)o1 [Example 198, 4-((7-amino-2-(5-methylfuran-2-yl)-[1,2,4]triazolo[1,5-a][1,3,5]triazin-5-yl)-L-prolyl)-1-phenylpiperazin-2-one] | 8 nM
Nc1nc(N2CCC[C@H]2C(=O)N2CCN(C(=O)C3(C(F)(F)F)CCC3)CC2)nc2nc(-c3ccco3)nn12 [Example 75] | 9 nM
COc1ccccc1N1CCN(C(=O)[C@@H]2CCCN2c2nc(N)n3nc(-c4ccco4)nc3n2)CC1 [Example 122, (S)-(1-(7-amino-2-(furan-2-yl)-[1,2,4]triazolo[1,5-a][1,3,5]triazin-5-yl)pyrrolidin-2-yl)(4-(2-methoxyphenyl)piperazin-1-yl)methanone] | 19 nM
CC(C)(F)CN1CCN(C(=O)[C@H](Cc2ccccc2)Nc2nc(N)n3nc(-c4ccco4)nc3n2)CC1 [Example 28, (S)-2-((7-amino-2-(furan-2-yl)-[1,2,4]triazolo[1,5-a][1,3,5]triazin-5-yl)amino)-1-(4-(2-fluoro-2-methylpropyl)piperazin-1-yl)-3-phenylpropan-1-one] | 8 nM
CCC(O)(CC)CN1CCN(C(=O)[C@@H](Nc2nc(N)n3nc(-c4ccco4)nc3n2)C2CCCCC2)CC1 [Example 185, (S)-2-((7-amino-2-(furan-2-yl)-[1,2,4]triazolo[1,5-a][1,3,5]triazin-5-yl)amino)-2-cyclohexyl-1-(4-(2-ethyl-2-hydroxybutyl)piperazin-1-yl)ethan-1-one] | 3 nM
Nc1nc(N2CCC[C@H]2C(=O)N2CC(COc3ccccc3)C2)nc2nc(-c3ccco3)nn12 [Example 114, (S)-(1-(7-amino-2-(furan-2-yl)-[1,2,4]triazolo[1,5-a][1,3,5]triazin-5-yl)pyrrolidin-2-yl)(3-(phenoxymethyl)azetidin-1-yl)methanone] | 8 nM
Nc1nc(N2CC[C@H]2C(=O)N2CCN(C(=O)c3ccccc3)CC2)nc2nc(-c3ccco3)nn12 [Example 109, (S)-(1-(7-amino-2-(furan-2-yl)-[1,2,4]triazolo[1,5-a][1,3,5]triazin-5-yl)azetidin-2-yl)(4-benzoylpiperazin-1-yl)methanone] | 13 nM
Nc1nc(N2CCC[C@H]2C(=O)N2CCN(CCN3CCOCC3)CC2)nc2nc(-c3ccco3)nn12 [Example 53, 4-(2-(4-((7-amino-2-(furan-2-yl)-[1,2,4]triazolo[1,5-a][1,3,5]triazine-5-yl)-L-prolyl)piperazin-1-yl)ethyl)morpholine] | 8 nM
CCC(F)(F)CN1CCN(C(=O)[C@@H]2CCCN2c2nc(N)n3nc(-c4ccco4)nc3n2)CC1 [Example 225, (S)-(1-(7-amino-2-(furan-2-yl)-[1,2,4]triazolo[1,5-a][1,3,5]triazin-5-yl)pyrrolidin-2-yl)(4-(2,2-difluorobutyl)piperazin-1-yl)methanone] | 2 nM
Nc1nc(N[C@@H](Cc2ccccc2)C(=O)N2CCN(CC(F)(F)F)CC2)nc2nc(-c3ccco3)nn12 [Example 4] | 0.458 nM

More lines, now with the values ahead:

IC50 | Compound
0.8 nM | Nc1nc(N2CC3(CC3)C[C@H]2C(=O)N2CCN(CC(F)(F)F)CC2)nc2nc(-c3ccco3)nn12 [Example 385, (S)-(5-(7-amino-2-(furan-2-yl)-[1,2,4]triazolo[1,5-a][1,3,5]triazin-5-yl)-5-azaspiro[2.4]heptan-6-yl)(4-(2,2,2-trifluoroethyl)piperazin-1-yl)methanone]
3 nM | CC(F)(F)CN1CCN(C(=O)[C@@H]2CCCN2c2nc(N)c3nc(-c4ccco4)sc3n2)CC1 [Example 259, (S)-(1-(7-amino-2-(furan-2-yl)thiazolo[5,4-d]pyrimidin-5-yl)pyrrolidin-2-yl)(4-(2,2-difluoropropyl)piperazin-1-yl)methanone]
11 nM | COC[C@H](Nc1nc(N)n2nc(-c3ccco3)nc2n1)C(=O)N1CCN(c2ncccn2)CC1 [Example 304, (S)-2-((7-amino-2-(furan-2-yl)-[1,2,4]triazolo[1,5-a][1,3,5]triazin-5-yl)amino)-3-methoxy-1-(4-(pyrimidin-2-yl)piperazin-1-yl)propan-1-one]
2 nM | C[C@@H]1CN(CC(C)(C)O)CCN1C(=O)[C@@H]1CCCN1c1nc(N)n2nc(-c3ccco3)nc2n1 [Example 373, ((S)-1-(7-amino-2-(furan-2-yl)-[1,2,4]triazolo[1,5-a][1,3,5]triazin-5-yl)pyrrolidin-2-yl)((R)-4-(2-hydroxy-2-methylpropyl)-2-methylpiperazin-1-yl)methanone]
10.8 nM | CC(C)(O)C(=O)N1CCN(C(=O)[C@@H]2CCN2c2nc(N)n3nc(-c4ccco4)nc3n2)CC1 [Example 267, (S)-1-(4-(1-(7-amino-2-(furan-2-yl)-[1,2,4]triazolo[1,5-a][1,3,5]triazin-5-yl)azetidine-2-carbonyl)piperazin-1-yl)-2-hydroxy-2-methylpropan-1-one]
12 nM | Nc1nc(N2CCC[C@H]2C(=O)N2CCN(CC3(C(F)(F)F)CC3)CC2)nc2nc(-c3ccco3)nn12 [Example 283, (S)-(1-(7-amino-2-(furan-2-yl)-[1,2,4]triazolo[1,5-a][1,3,5]triazin-5-yl)pyrrolidin-2-yl)(4-((1-(trifluoromethyl)cyclopropyl)methyl)piperazin-1-yl)methanone]
13 nM | C[C@H](Nc1nc(N)n2nc(-c3ccco3)nc2n1)C(=O)N1CCC(C2CCN(CC(F)F)CC2)CC1 [Example 334, (S)-2-((7-amino-2-(furan-2-yl)-[1,2,4]triazolo[1,5-a][1,3,5]triazin-5-yl)amino)-1-(1′-(2,2-difluoroethyl)-[4,4′-bipiperidin]-1-yl)propan-1-one]
5 nM | Cc1ccc(-c2nc3nc(N4CC[C@H]4C(=O)N4CCN(CC(F)(F)C(F)(F)F)CC4)nc(N)n3n2)o1 [Example 313, (S)-(1-(7-amino-2-(5-methylfuran-2-yl)-[1,2,4]triazolo[1,5-a][1,3,5]triazin-5-yl)azetidin-2-yl)(4-(2,2,3,3,3-pentafluoropropyl)piperazin-1-yl)methanone]
17 nM | CC(C)[C@H](Nc1nc(N)n2nc(-c3ccco3)nc2n1)C(=O)N1CCN(CC(C)(C)O)CC1 [Example 351, (S)-2-((7-amino-2-(furan-2-yl)-[1,2,4]triazolo[1,5-a][1,3,5]triazin-5-yl)amino)-1-(4-(2-hydroxy-2-methylpropyl)piperazin-1-yl)-3-methylbutan-1-one]
